These results are taken from patent publication US20070072946A1 (priority 2005, published 2007).

SMILES strings stand for the structures. Where “and” joins values, the source holds several entries; their conditions need not be identical. Equal entries are not always repeated. Structures can show the parent of a compound that is named as a salt.

Series [1] concerns subjects suffering from fibromyalgia syndrome. The settings on record: cited from earlier work; for subjects with significant clinical improvement: after one month; for long-term efficacy: at six months, 19% improvement with placebo; for difference from placebo: at three months.
The subject of the next series is patients with FMS. The settings on record: cited from earlier work.
Series [2] deals with patients who met the 1990 ACR criteria for fibromyalgia syndrome. Nature of the series: Multi-center double-blind, randomized, placebo-controlled study of milnacipran for fibromyalgia (Example 1, FMS031). The class given is in vivo, human. The settings on record: for m, number of responders: observed cases; for percentage of responders (greater than 30% reduction in pain from baseline and improvement on the PGIC): observed cases (OC), hydrochloride. As to the method:
The primary outcome was a composite responder analysis assessing response rate at weeks 14 and 15, and the secondary analysis assessed response rate at weeks 26 and 27.
This was a multi-center, randomized, double-blinded, placebo-controlled three-arm study, which enrolled 888 patients who met the 1990 ACR criteria for fibromyalgia syndrome as well as the more detailed admission criteria outlined in the protocol.
Patients recorded baseline symptoms for the first two weeks after washing off anti-depressants, benzodiazepines, and certain other drugs that could potentially interfere with efficacy measurements.
All randomized medications (placebo and milnacipran) were administered in a split-dose (BID) fashion. The doses were administered in a dose escalation regimen as outlined below: • Step 1: 12.5 mg 1 day (12.5 mg pm) • Step 2: 25 mg 2 days (12.5 mg am, 12.5 mg pm) • Step 3: 50 mg 4 days (25 mg am, 25 mg pm) • Step 4: 100 mg 7 days (50 mg am, 50 mg pm) • Step 5: 200 mg 7 days (100 mg am, 100 mg pm).
Patients were required to complete electronic diary, as well as additional paper assessments as described in the schedule of study assessments.
In addition to the daily completion of a proprietary electronic patient diary, the following assessments were obtained:
a. Primary Variables: patient global impression of change (PGIC) and the Fibromyalgia Impact Questionnaire (FIQ);
d. FMS Status Assessments:, Patient pain 24 hour and 7 day recall VAS, the SF-36, Multiple Ability Self-report Questionnaire (MASQ, cognitive function), the Multidimensional Health Assessment Questionnaire (MDHAQ) and the Multi-dimensional Fatigue Inventory (MFI). Diary assessments include current pain (morning, random daily, and evening reports); daily recall pain (morning report); medications taken (evening report); overall pain past week (weekly report), overall fatigue in the last week (weekly report), and the extent that pain kept the patient from caring for themselves (weekly report).
The primary endpoint of this study was a composite responder analysis implementing analysis of three domains of interest, evaluated at […]. The domains measured were:
1) pain (measured by an electronic diary as a daily recall pain score, calculated to weekly average scores);
2) patient global (measured by the PGIC, 1-7 scale); and
3) physical function (measured by the FIQ-PF).
For the primary analysis, the pain domain score was determined by a calculation that compared the average of treatment weeks 14 and 15 to the two baseline weeks, and treatment weeks 26 and 27 vs. baseline for the secondary analysis. The last observation was carried forward if neither the week 14 nor week 15 (or week 26/27) patient self-reported pain score is available to compare to the baseline value.
A responder was defined as a subject who experienced a greater than 30% reduction in pain from baseline and improvement on the PGIC.
See Table 1 for a summary of the results in the Intent-to-Treat Population and Table 2 for a summary of the Last Observation Carried Forward (LOCF), Baseline Observation Carried Forward (BOCF) and study completer (OC) populations. LOCF is an analysis in which observations are carried forward to the last time point for patients who dropped out. The LOCF analysis treats the carried-forward data as observed data at the last time point. BOCF is an analysis that requires the patient remain active in the trial to be evaluated for response. If a patient withdraws from the trial for any reason they are classed as a non-responder irregardless of their pain and global scores at the time of withdrawal.

In a further series the test system is fibromyalgia patients. The settings on record: cited from earlier work.
Where [3] appears, read: both milnacipran treatment groups (BID and QD), up to 200 mg/day.

As for `CN(C)CCC=C1c2ccccc2C=Cc2ccccc21` [cyclobenzaprine], in series [1], the “subjects with significant clinical improvement” value is 12%; the long-term efficacy result is given as “no long-term efficacy could be demonstrated”; the difference from placebo entry is “no difference between either treatment group and placebo”.
Turning to `COc1ccc(C(CN(C)C)C2(O)CCCCC2)cc1` (centres unmarked) [venlafaxine], the “patients with insomnia requiring adjunctive medical therapy” value in the series with patients with FMS (of 11 completing patients) is on record as 3 patients. For the same compound, in the series with patients with FMS (of the 11 patients that completed the study), the “patients with a positive response (50% or greater improvement in two different measurements of overall pain)” value is 6 patients.
For `CN(C)CCC=C1c2ccccc2CCc2ccccc21` [amitriptyline], in series [1], the “subjects with significant clinical improvement” value is recorded as 21%; the long-term efficacy entry was “no long-term efficacy could be demonstrated”; the difference from placebo result is “no difference between either treatment group and placebo”.
Turning to `CCN(CC)C(=O)C1(c2ccccc2)CC1CN` (centres unmarked) [milnacipran, Z-2-aminomethyl-1-phenyl-N,N-diethylcyclopropanecarboxamide hydrochloride], in series [2] (100 mg/day vs 200 mg/day, long-term treatment), the “efficacy of low dose compared with high dose” value was “almost as effective as continued administration of high dose milnacipran”. Also, the “Individual Component Responder Rate, PGIC (LOCF)” value in series [2] (100 mg, 3 month) was found to be 54.0%; in series [2] (100 mg, 6 month), 49.6%; in series [2] (200 mg, 3 month) it was 50.6%; in series [2] (200 mg, 6 month) it was 49.9%. For the same compound, the “Individual Component Responder Rate, Pain (LOCF)” value in series [2] (100 mg, 3 month) was 35.7%; in series [2] (100 mg, 6 month) it was 35.7%; in series [2] (200 mg, 3 month), 38.3%; in series [2] (200 mg, 6 month), 35.4%. For the same compound, the “Pain Composite Responder Rate, Sensitivity Analysis I (BOCF)” value in series [2] (100 mg, 3 month) amounted to 32.1%; in series [2] (100 mg, 6 month), 26.8%; in series [2] (200 mg, 3 month), 32.4%; in series [2] (200 mg, 6 month), 27.0%. Besides, the “Pain Composite Responder Rate, Sensitivity Analysis II” value in series [2] (100 mg, 3 month) was determined as 32.%; in series [2] (100 mg, 6 month), 27.2%; in series [2] (200 mg, 3 month) it was 32.7%; in series [2] (200 mg, 6 month), 28.6%. In addition, the “Pain Composite Responder Rate, Sensitivity Analysis III” value was 32.1% in series [2] (100 mg, 3 month); 29.5% in series [2] (100 mg, 6 month); 32.4% in series [2] (200 mg, 3 month); 29.9% in series [2] (200 mg, 6 month). Besides, the “Pain Composite Responder Rate, Primary Analysis (LOCF)” value in series [2] (100 mg, 3 month, N = 224) is recorded as 33.5%; in series [2] (100 mg, 6 month, N = 224) it was 30.8%; in series [2] (200 mg, 3 month, N = 441), 34.9%; in series [2] (200 mg, 6 month, N = 441) it was 32.2%. Further, the “m, number of responders” value was 72 in series [2] (100 mg, treatment weeks 14-15, n = 135); 60 in series [2] (100 mg, treatment weeks 26-27, n = 121); 143 in series [2] (200 mg, treatment weeks 14-15, n = 260); 119 in series [2] (200 mg, treatment weeks 26-27, n = 230). Besides, in series [2] (continued daily administration for at least three months), the “long-term relief from fibromyalgia and its symptoms” value is “provides long-term (at least three months) relief from fibromyalgia and its symptoms”. Also, the “percentage of responders (greater than 30% reduction in pain from baseline and improvement on the PGIC)” value in series [2] (milnacipran 100 mg/day BID, 3 months (treatment weeks 14-15)) was 53.33% and 53.3%; in series [2] (milnacipran 100 mg/day BID, 3 months (treatment weeks 14-15), listed as Milnacipran), 53.33%; in series [2] (milnacipran 100 mg/day BID, 6 months (treatment weeks 26-27)), 49.59% and 49.6%; in series [2] (milnacipran 100 mg/day BID, 6 months (treatment weeks 26-27), listed as Milnacipran) it was 49.59%; in series [2] (milnacipran 200 mg/day BID, 3 months (treatment weeks 14-15)), 55.0%; in series [2] (milnacipran 200 mg/day BID, 3 months (treatment weeks 14-15), listed as Milnacipran), 55.00%. The “percentage of responders (greater than 30% reduction in pain from baseline and improvement on the PGIC)” value in series [2] (milnacipran 200 mg/day BID, 6 months (treatment weeks 26-27)) was 51.74% and 51.7%; in series [2] (milnacipran 200 mg/day BID, 6 months (treatment weeks 26-27), listed as Milnacipran), 51.74%. Further, the “deaths or serious adverse events associated with treatment” value with fibromyalgia patients (Phase II study) was “no deaths or serious adverse events”. For the same compound, the “acute (short-term) efficacy on the symptom of pain in FMS” value in the series on fibromyalgia patients (Phase II trial) is “effective acute (short-term) therapy for the symptom of pain in FMS”. Besides, the “completers reporting an improvement in their overall status on the PGIC” value in the series on fibromyalgia patients (setting [3]) is “over 70%”. The “completers reporting worsening on the PGIC” value in the series on fibromyalgia patients (setting [3]) is 10%. For the same compound, the “patients with elevation in hepatic enzymes reported as adverse event” value in the series with fibromyalgia patients (milnacipran-treated patients) is given as 2%. In addition, in the series on fibromyalgia patients (twice-daily dosing compared with QD), the “efficacy of BID versus QD dosing in treating pain” value was “more effective in treating pain than QD dosing”. The “efficacy of BID versus QD dosing on fatigue, mood, global wellness, and function” value in the series on fibromyalgia patients (twice-daily vs once-daily dosing, up to 200 mg/day) is “approximately equally effective”.
